Data reported in patent US20220119772A1, “COMPOSITIONS AND METHODS FOR TREATMENT OF A MALABSORPTIVE DISORDER” (CHILDREN'S HOSPITAL MEDICAL CENTER, priority 2019, published 2022).
Ends that are not written are not given here.

Legend:
HIO-derived enteroids [1] = experiment: Enteroid swelling assay (VIP-induced, CFTR-mediated ion and water efflux); format: cell-based, human; settings: for VIP-induced enteroid swelling: 10 nM VIP, 6 h, 10 nM PYY or 20 μM CFTR-172 added 24 h before imaging
Method: Enteroids were plated in 10 μL Matrigel on an 8-chamber glass bottom slide (Ibidi) and maintained as described above. 3-5 days post-plating, the slide was mounted on an inverted confocal microscope (Nikon) fitted with an incubation chamber set to 37° C. and 5% CO2. Media was changed to include 10 nM VIP (Tocris). In some experiments, the media was changed 24 hours prior to imaging to include 20 μM CFTR (inh)-172 (Millipore Sigma) or 10 nM PYY (Phoenix Pharmaceuticals). Images were acquired every 5 minutes at 4× magnification. After 6 hours, some HIOEs swelled to the point of bursting; therefore, Applicant used images acquired at time 0 and at 6 hours for quantification. The area of 10 representative enteroids per well was quantified using NIS Elements software at both time points. The outline of individual enteroids was traced manually and the area calculated by NIS Elements. Fold change at 6 hours over baseline was reported. Data include a minimum of three independent experiments per condition.

HIO-derived enteroids [2] = experiment: Intracellular pH assay (pHrodo, flow cytometry) in enteroids; format: cell-based, human
Method: (§1) Enteroids were differentiated for 5-7 days in the presence of vehicle (water), 10 nM VIP (Tocris) or 10 nM PYY (Phoenix Pharmaceuticals) and 10 nM VIP. On the final day, enteroids were removed from Matrigel and enzymatically dissociated into single-cell suspension using 0.25% Trypsin-EDTA. Cell suspensions were counted and equal cell numbers of dissociated HIOEs were incubated in pHrodo Green AM Intracellular pH indicator (ThermoFisher Scientific) according to manufacturer's directions for 30 minutes at 37 C., washed with 1X PBS, and analyzed by flow cytometry.
(§2) After mechanical and enzymatic dissociation, tissues were filtered through a 40 μm cell strainer to obtain a single-cell suspension. In all experiments, samples were labeled with either CDH1-mRuby2 or Anti-EpCam-APC (BD Biosciences) to distinguish epithelial cells and incubated with SYTOX Blue dead cell stain (Life Technologies) or 7-AAD (BD Pharmingen). Forward scatter and side scatter were used to discriminate doublets and cellular debris. A minimum of 50,000 events per sample was recorded using an LSR Fortessa flow cytometer (BD Biosciences) and data was analyzed using FACSDiva software (BD Biosciences).

SLC9A3 (NHE3) expression = experiment: qPCR of SLC9A3 (NHE3) expression in enteroids; format: cell-based, human
Method: RNA was extracted using Nucleospin RNA extraction kit (Macharey-Nagel) and reverse transcribed into cDNA using Superscript VILO (Invitrogen) according to manufacturer's instruction. qPCR primers were designed using NCBI PrimerBlast. Primer sequences are listed in the table below. qPCR was performed using Quantitect SYBR® Green PCR kit (QIAGEN) and a QuantStudio 3 Flex Real-Time PCR System (Applied Biosystems). Relative expression was determined using the […] method and normalizing to PPIA (cyclophilin A). Samples from at least three independent passages were used for quantification.
as §1

mouse jejunum = experiment: Ussing chamber electrophysiology, peptides/chemicals added ex vivo, mouse jejunum; format: cell-based; settings: for initial Isc response to luminal glucose: then 25 mM D-glucose
Method: (§3) Electrophysiological experiments were conducted as described^28 with minor modifications. Mouse jejunum and transplanted HIOs were dissected and immediately placed in ice-cold Krebs-Ringer solution. Tissues were opened to create a flat epithelial surface. Because seromuscular stripping is associated with release of cyclooxygenases and prostaglandins^28, and prostaglandins can stimulate L-cells to release GLP1, GLP2 and PYY^36, Applicant performed the Ussing chamber experiments in intestinal tissue with an intact muscular layer. Tissues were mounted into sliders (0.031 cm^2 area slider, P2307, Physiological Instruments) and placed in an Ussing chamber with reservoirs containing 5 mL buffer (115 mM NaCl, 1.2 mM CaCl2, 1.2 mM MgCl2, 25 mM NaHCO3, 2.4 mM K2HPO4 and 0.4 mM KH2PO4). The mucosal and serosal tissue surfaces were bathed in the same solution, with the exception of 10 mM glucose in the serosal buffer and 10 mM mannitol in the luminal buffer. Mucosal and serosal reservoir solutions were gassed with 95% O2 and 5% CO2 to pH 7.4 and maintained at 37° C. by a circulating water bath behind the reservoir chambers. Electrophysiology parameters were recorded as previously described^37. Tissue was allowed to equilibrate to a basal steady-state for a minimum of 30 minutes before the addition of chemicals or peptides. 10 nM tetrodotoxin (Tocris) was added to the serosal buffer bathing mouse intestine to inhibit voltage-gated neuronal firing and allowed to incubate for a minimum of 10 minutes before basal Isc recording. D-glucose and Gly-Sar were added to the luminal side of the chamber once the VIP-induced Isc had stabilized at a maximum value.

[3] = tested on: human small intestinal tissue (transplanted HIOs); experiment: Ussing chamber electrophysiology, peptides/chemicals added ex vivo, transplanted HIO tissue; format: cell-based; settings: for initial Isc response to luminal glucose: then 25 mM D-glucose
Method: (§4) 28-35 days after spheroid generation, HIOs were removed from Matrigel and transplanted under the kidney capsule of immune deficient NOD.Cg-Prkdc^scidI12rg^tmIWjl/SzJ (NSG) mice as previously described^16. NSG mice were maintained on Bactrim chow for a minimum of 2 weeks prior to transplantation and thereafter for the duration of the experiment (8-14 weeks).
as §3

[4] = tested on: EEC-deficient HIOs transplanted in NSG mice; experiment: PYY treatment of NSG mice hosting EEC-deficient HIOs, Ussing chamber analysis of HIO tissue; format: in vivo, human
Method: as §4
Electrophysiological experiments were conducted as described^28 with minor modifications. Mouse jejunum and transplanted HIOs were dissected and immediately placed in ice-cold Krebs-Ringer solution. Tissues were opened to create a flat epithelial surface. Because seromuscular stripping is associated with release of cyclooxygenases and prostaglandins^28, and prostaglandins can stimulate L-cells to release GLP1, GLP2 and PYY^36, Applicant performed the Ussing chamber experiments in intestinal tissue with an intact muscular layer. […] Electrophysiology parameters were recorded as previously described^37. […]
NSG mice hosting HIOs were treated with 25 μg PYY (Phoenix Pharmaceuticals) diluted in water to 100 μL by intraperitoneal injection. Mice were treated daily for a minimum of 10 days after HIOs had been maturing for 8 weeks, then dissected and analyzed.

[5] = tested on: VillinCre;Neurog3flox/flox (EEC-deficient) mice; experiment: PYY rescue of EEC-deficient mice (daily i.p. injection), with ex vivo analysis of jejunum; format: in vivo, mouse
Method: as §3, §2
VillinCre;Neurog3^flox/flox mice^4 and their littermates were weighed, genotyped and visually examined for liquid feces daily beginning at postnatal day 10. Applicant established a diarrhea score, with 3 representing wet, yellow feces that smeared the perianal fur, and 0 representing normal, dry, brown, well-defined pellets. Mutant mice which suffered from diarrhea score 3 were included in the rescue experiment. 10 μg PYY (Phoenix Pharmaceuticals) was diluted in water and added to 20 μl DPP4 inhibitor (Millipore) to a final volume of 100 μl per mouse. Mice were injected intraperitoneally with this cocktail within 2 hours of the onset of the dark cycle (7 pm) daily until analysis at postnatal day 28-35. Mice were given access to solid chow on the floor of the cage beginning at postnatal day 10 and weaned at postnatal day 21.

Molecule: VIP: vasoactive intestinal peptide (Tocris), ENS-derived peptide signalling via VIPR1 to raise cAMP (HSDAVFTDNYTRLRKQMAVKKYLNSILN-NH2; ends and bridges not checked; UniProt P01282 125-152, looked up)
- ion and water transport as measured by organoid swelling (HIO-derived enteroids [1]; 10 nM VIP added to enteroids): induced ion and water transport
- intracellular pH (HIO-derived enteroids [2]; EEC-deficient enteroids differentiated with 10 nM VIP for 5-7 days): developed an H^+ imbalance with an acidic cytoplasm
- SLC9A3 expression (SLC9A3 (NHE3) expression; EEC-deficient enteroids, 5-7 days of exposure to VIP): reduced
- SLC9A3 expression (SLC9A3 (NHE3) expression; wild type enteroids, 5-7 days of exposure to VIP): reduced

Molecule: O=C(O)c1ccc(/C=C2\SC(=S)N(c3cccc(C(F)(F)F)c3)C2=O)cc1 [CFTR-172]
- electrogenic response to VIP (mouse jejunum; wild type and mutant jejunum pre-treated with 20 μM CFTR-172): blocked
- VIP-induced enteroid swelling (HIO-derived enteroids [1]; EEC-deficient enteroids): blocked
- VIP-induced enteroid swelling (HIO-derived enteroids [1]; wild type enteroids): blocked
- electrogenic response to VIP ([3]; wild-type and EEC-deficient human tissue, 20 μM CFTR-172): blocked

Molecule: PYY: Peptide YY, PYY(1-36) from Phoenix Pharmaceuticals; EEC-derived gut peptide acting on NPY1R; co-injected with DPP4 inhibitor in mice
- response to luminal glucose ([4]; EEC-deficient HIOs, host animals injected with 25 μg PYY i.p. daily for 10 days): restores a normal glucose response
- Isc response to luminal Gly-Sar ([4]; EEC-deficient transplanted HIOs, host animals treated long-term with PYY, compared to untreated mutant): improved Isc response to luminal Gly-Sar
- survival of EEC-deficient (mutant) mice ([5]; 10 μg PYY(1-36) i.p. once daily from P10, co-injected with DPP4 inhibitor): up to 88%
- Isc response to luminal Gly-Sar ([5]; EEC-deficient mice, long-term PYY treatment, compared to untreated mutant): improved Isc response to luminal Gly-Sar
- response to luminal glucose ([5]; EEC-deficient mouse intestine after in vivo PYY treatment): restores a normal glucose response
- MFI of pHrodo intensity (intracellular pH, proton transport) ([5]; EEC-deficient vs EEC-rich regions of mosaic jejunum after PYY treatment): normalized
- electrogenic response to VIP ([5]; jejunum of mutant mice treated with PYY in vivo): restored to wild type levels
- basal (resting) Isc of jejunum ([5]; mutant jejunum in Ussing chamber after in vivo injections of PYY): significantly decreased
- diarrhea score (average) ([5]; within 48 hours of PYY treatment, score 3 = watery diarrhea, 0 = well-defined pellets, 10 μg PYY i.p. daily with DPP4 inhibitor): 1
- basal Isc (mouse jejunum; EEC-deficient (mutant) mouse tissue, 10 nM PYY added): lowered the basal Isc
- initial Isc response to luminal glucose (mouse jejunum; EEC-deficient mouse tissue treated with VIP, pre-treatment with 10 nM PYY): returned to wild type levels
- Isc response to luminal dipeptide Gly-Sar (mouse jejunum; EEC-deficient mouse tissue, 10 minutes pre-treatment with 10 nM PYY, VIP present): did not alter the Isc response to Gly-Sar
- magnitude of response (ΔIsc) to VIP (mouse jejunum; EEC-deficient mutant mice, 10 nM VIP, exogenous PYY added): reduced the magnitude of response (ΔIsc) to VIP
- VIP-induced enteroid swelling (HIO-derived enteroids [1]; EEC-deficient enteroids): significant inhibition of VIP-induced swelling
- VIP-induced enteroid swelling (HIO-derived enteroids [1]; wild type enteroids): significant inhibition of VIP-induced swelling
- intracellular pH (HIO-derived enteroids [2]; EEC-deficient enteroids, 10 nM VIP with concurrent 10 nM PYY for 5-7 days): normalized the pH in EEC-deficient enteroids
- SLC9A3 expression (SLC9A3 (NHE3) expression; EEC-deficient enteroids, PYY concurrently with VIP, 5-7 days): restored SLC9A3 expression to not significantly different from untreated
- basal Isc ([3]; EEC-deficient (mutant) human tissue, 10 nM PYY added): lowered the basal Isc
- initial Isc response to luminal glucose ([3]; EEC-deficient HIO tissue treated with VIP, pre-treatment with 10 nM PYY): returned to wild type levels
- magnitude of response (ΔIsc) to VIP ([3]; EEC-deficient mutant HIOs, 10 nM VIP, exogenous PYY added): reduced the magnitude of response (ΔIsc) to VIP

Molecule: NC(=O)NCc1ccc(CNC(=O)[C@@H](CCCN=C(N)N)NC(=O)C(c2ccccc2)c2ccccc2)cc1 [BIB03304, N-[(1R)-1-[[[[4-[[(Amirtocarbortyl)amino]methyl]phenyl]methyl]amino]carbonyl]-4-[(aminoiminomethyl)amino]butyl]-α-phenyl-benzeneacetamide ditrifluoroacetate]
- initial Isc response to luminal glucose (mouse jejunum; wild-type mouse tissue treated with VIP, NPY1R antagonist BIB03304): caused an abnormal initial response to glucose that mimicked EEC-deficient tissues
- response (ΔIsc) to VIP (mouse jejunum; wild-type mouse tissue, 10 nM VIP, PYY receptor inhibited with BIB03304): elevated response to VIP compared to untreated wild-type
- basal Isc (mouse jejunum; wild-type mouse tissue, 300 nM BIB03304 added): reproducibly increased the basal Isc
- Isc response to luminal dipeptide Gly-Sar (mouse jejunum; wild-type mouse tissue, 10 minutes pre-treatment with 300 nM BIB03304): did not alter the Isc response to Gly-Sar
- initial Isc response to luminal glucose ([3]; wild-type HIO tissue treated with VIP, NPY1R antagonist BIB03304): caused an abnormal initial response to glucose that mimicked EEC-deficient tissues
- response (ΔIsc) to VIP ([3]; wild-type human tissue, 10 nM VIP, PYY receptor inhibited with BIB03304): elevated response to VIP compared to untreated wild-type
- basal Isc ([3]; wild-type human tissue, 300 nM BIB03304 added): reproducibly increased the basal Isc
- Isc response to luminal dipeptide Gly-Sar ([3]; wild-type human tissue, 10 minutes pre-treatment with 300 nM BIB03304): did not alter the Isc response to Gly-Sar
